The results in this text go back to patent US20110230493A1, “1-OXA-8-Azaspiro [4,5] Decabe-8-Carboxamide Compounds as FAAH Inhibitors” (Pfizer Inc., priority 2008, published 2011).

One test relates to Male Sprague-Dawley Rats. Put plainly: In vivo Complete Freund's Adjuvant (CFA) efficacy assay, inhibition of allodynia. Also on record: species or system rat; key: (+) indicates the test compound was determined to be efficacious at 3 mpk, oral dosing; (−) indicates the test compound was determined to not be efficacious at 3 mpk, oral dosing. Conditions: 3 mpk, oral dosing; PWT four hours postdose; p < 0.05 vs vehicle group. How it is done:
For additional information on the CFA efficacy assay, see Jayamanne et al., Brit. J. Pharmacol. 2006, 147, 281-288. Experiments were performed on adult Male Sprague-Dawley Rats (200 g-250 g). Inflammation was induced in the left hindpaw of the rat by an intra-plantar injection of 150 uL Complete Freund's Adjuvant (CFA) (SIGMA F5881). The CFA injection immediately induces local inflammation, paw swelling, and pain that persists for at least two weeks post-injection. Baseline paw withdrawal threshold (PWT) was measured to determine the percent inhibition of allodynia using a set of Von Frey Hairs on day 4 post injection as illustrated by the Dixon Up and Down Method (W. J. Dixon, Ann. Rev. Pharmacol. Toxicol. 1980, 20:441-462). […] Following Dose administration PWT threshold was evaluated again at four hours postdose. The Sprague-Dawley rats used in this assay were purchased from Harlan, 8520 Allison Pointe Blvd., Indianapolis, Ind., 46250, U.S.A. Sprague-Dawley rats are an outbred breed of albino rats first produced by the Sprague Dawley farms in Madison, Wis., U.S.A.
Percent Inhibition of Allodynia was determined by the formula: […]
ΔPWT measurements were averaged for each treatment group and statistical comparisons between groups were made using ANOVA and Dunnett's two-tailed test. […]

The target in a further test is T1, rat FAAH (Rattus norvegicus, UniProt P97612).
T1 construct: made in house; host or cells: E. coli
T1 sequence (P97612 1-579): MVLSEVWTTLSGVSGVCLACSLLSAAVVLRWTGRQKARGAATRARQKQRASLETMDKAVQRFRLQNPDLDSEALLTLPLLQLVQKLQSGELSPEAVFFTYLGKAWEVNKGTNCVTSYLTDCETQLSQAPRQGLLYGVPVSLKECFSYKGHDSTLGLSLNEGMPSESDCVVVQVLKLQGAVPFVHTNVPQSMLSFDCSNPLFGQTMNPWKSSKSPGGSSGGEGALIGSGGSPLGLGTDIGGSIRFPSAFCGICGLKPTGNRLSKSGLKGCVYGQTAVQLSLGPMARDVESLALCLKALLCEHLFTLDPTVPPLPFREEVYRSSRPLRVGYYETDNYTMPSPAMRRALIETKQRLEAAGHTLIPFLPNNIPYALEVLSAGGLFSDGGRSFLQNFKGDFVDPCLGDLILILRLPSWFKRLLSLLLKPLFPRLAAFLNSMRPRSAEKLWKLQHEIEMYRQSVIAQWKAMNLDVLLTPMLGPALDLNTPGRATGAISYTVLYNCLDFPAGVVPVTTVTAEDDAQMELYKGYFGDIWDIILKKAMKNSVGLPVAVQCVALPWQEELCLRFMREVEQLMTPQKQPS
The test is described as follows: FAAH assay, rat FAAH enzyme inactivation (kinact/Ki). The test is classed as biochemical. The settings on record: oleamide 50 μM, 30° C.; for kinact/KI: pH 7.4, in vitro, read-out: rFAAH kinact/Ki; for rFAAH kinact/Ki: in vitro, pH 7.4. Here is the method: (§1) The FAAH assay was carried out in 384-well clear polystyrene plates (Evergreen Scientific) in a total volume of 50 μl per well in a manner similar to that described by Mileni et al., Proc. Nat. Acad. Sci. 2008, 105, 12820-12824. All percents are by volume. Serial dilutions of compound were initially prepared in 100% DMSO, and then diluted two-fold into HPLC-grade H2O to give 50% DMSO. To each well, was placed the reaction mixture (40 μl) containing 1-4 nM FAAH, 50 mM NaPi, pH 7.4, 3 mM α-ketoglutarate, 0.15 mM NADH, 7.5 U/ml glutamate dehydrogenase, 2 mM ADP, 1 mM EDTA, and 0.1% Triton X-100 (The concentration shown for each component is the final concentration in the assay). To this mixture, was added 5 μl of a compound of Examples 1 to 101 at various concentrations in 50% DMSO (or 5 μl 50% DMSO for controls). This was immediately followed by the addition of 5 μl oleamide (500 μM) dissolved in 75% EtOH/25% DMSO and the reaction mixture was mixed for 1.5 min. The final concentrations of DMSO and EtOH in the assay were each 7.5%. The reactions were incubated at 30° C. and the absorbance at 340 nm was collected over a period of 90 min with readings taken in 30-second intervals using SpectraMax Plus^384 Microplate Spectrophotometer (Molecular Devices, Sunnyvale, Calif.). The human FAAH and rat FAAH used in the assay was prepared as described in the patent application WO 2006/067613 using wild-type E. coli cells transformed in St. Louis, Mo., U.S.A. The purity of the enzyme was greater than 98% based on an analysis by SDS-polyacrylamide gel electrophoresis followed by Coomassie Blue staining.
(§2) Reaction progress curves were corrected for the non-enzymatic oxidation of NADH by subtraction of absorbancies at each time point obtained from control reactions containing no FAAH enzyme. The loss of enzyme activity as a function of time is well-described by the following mathematical equation (1) for a mono-exponential decay: […]
(§3) where At represents the absorbance at time t, A0 represents the absorbance at time zero, and C represents a constant. Observed rates of enzyme inactivation (kobs) were determined from the non-linear reaction progress curves by fitting the corrected absorbancies to an equation for a mono-exponential decay using the third-party Microsoft Excel plug-in, XLfit (IDBS Limited). Secondary plots of kobs vs. inhibitor concentration were prepared from kobs values obtained from progress curves. Second-order rates for enzyme inactivation, expressed as kinact/Ki (M^−1 s^−1), were calculated from the slopes from linear regression analysis of the secondary plot of kobs vs. inhibitor concentration as defined in following equation (2), where [I]<<Ki:
(§4) The concentration of substrate in the assay was equal to the Km for oleamide of 50 μM. Therefore, reported kinact/Ki values are obtained by multiplying resulting slopes by a factor of two (i.e. slope=kinact/(Ki*2)).
(§5) Table 1, below, lists human FAAH (hFAAH) and rat FAAH (rFAAH) enzyme inhibition values for Examples 1-101 as a ratio of kinact/Ki (M^−1 s^−1).

The target in the next test is T2, human FAAH (Homo sapiens, UniProt O00519).
T2 construct: made in house; host or cells: E. coli
T2 sequence (O00519 1-579): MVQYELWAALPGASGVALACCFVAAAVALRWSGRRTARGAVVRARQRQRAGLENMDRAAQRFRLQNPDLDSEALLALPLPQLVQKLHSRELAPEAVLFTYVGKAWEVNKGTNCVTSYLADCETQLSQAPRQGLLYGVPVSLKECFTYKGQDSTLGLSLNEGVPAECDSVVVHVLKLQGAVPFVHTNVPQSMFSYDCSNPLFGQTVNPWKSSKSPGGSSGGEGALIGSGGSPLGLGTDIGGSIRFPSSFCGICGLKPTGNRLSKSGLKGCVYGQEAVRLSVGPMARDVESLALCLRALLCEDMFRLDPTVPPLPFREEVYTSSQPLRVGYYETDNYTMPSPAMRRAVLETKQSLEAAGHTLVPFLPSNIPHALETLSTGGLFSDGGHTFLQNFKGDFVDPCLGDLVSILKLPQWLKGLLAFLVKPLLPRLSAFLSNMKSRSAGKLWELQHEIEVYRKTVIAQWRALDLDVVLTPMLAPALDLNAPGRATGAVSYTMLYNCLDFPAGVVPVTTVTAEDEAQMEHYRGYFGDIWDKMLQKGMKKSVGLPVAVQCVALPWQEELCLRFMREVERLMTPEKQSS
The test is described as follows: FAAH assay, human FAAH enzyme inactivation (kinact/Ki). It is filed as biochemical. The settings on record: oleamide 50 μM, 30° C.; for kinact/KI: pH 7.4, in vitro, read-out: hFAAH kinact/Ki; for hFAAH kinact/Ki: in vitro, pH 7.4. Here is the method: as §1, §2, §3, §4, §5

In the case of `O=C(Nc1cccnc1)N1CCC2(CC1)C[C@@H](c1cccc(Oc3ccc(Br)cn3)c1)CO2` [Example 8], the “CFA Efficacy” value in the test on Male Sprague-Dawley Rats was “(+)”. The kinact/KI worked out at 3520 M⁻¹ s⁻¹ at rat FAAH and 1950 M⁻¹ s⁻¹ on human FAAH.
In the case of `Cc1noc(NC(=O)N2CCC3(CC2)CC(c2noc(-c4ccc(OC(F)(F)F)cc4)n2)CO3)c1C` (single isomer, unassigned) [Example 73, N-(3,4-dimethylisoxazol-5-yl)-3-{5-[4-(trifluoromethoxy)phenyl]-1,2,4-oxadiazol-3-yl}-1-oxa-8-azaspiro[4.5]decane-8-carboxamide], the “CFA Efficacy” value with Male Sprague-Dawley Rats is reported as “(+)”. In addition, at rat FAAH, the “rFAAH kinact/Ki” value is 1340 M⁻¹ s⁻¹. In addition, the “hFAAH kinact/Ki” value at human FAAH came to 2150 M⁻¹ s⁻¹.
In the case of `Cc1noc(NC(=O)N2CCC3(CC2)CC(c2ccc(OCc4ccc(F)c(F)c4)cc2)CO3)c1C` (racemic) [Example 30, (3RS)-3-{4-[(3,4-difluorobenzyl)oxy]phenyl}-N-(3,4-dimethylisoxazol-5-yl)-1-oxa-8-azaspiro[4.5]decane-8-carboxamide], the kinact/KI at rat FAAH amounted to 5800 M⁻¹ s⁻¹; at human FAAH, 7380 M⁻¹ s⁻¹.
The matching figures for `Cc1noc(NC(=O)N2CCC3(CC2)CC(c2cccc(OC(F)(F)F)c2)CO3)c1C` (racemic) [Example 13, (3RS)-N-(3,4-dimethylisoxazol-5-yl)-3-[3-(trifluoromethoxy)phenyl]-1-oxa-8-azaspiro[4.5]decane-8-carboxamide]: 3110 M⁻¹ s⁻¹ and 1800 M⁻¹ s⁻¹.
The matching figures for `Cc1noc(NC(=O)N2CCC3(CC2)CC(c2cccc(Cl)c2)CO3)c1C` (racemic) [Example 14, (3RS)-3-(3-chlorophenyl)-N-(3,4-dimethylisoxazol-5-yl)-1-oxa-8-azaspiro[4.5]decane-8-carboxamide]: 2670 M⁻¹ s⁻¹ and 2040 M⁻¹ s⁻¹.
The matching figures for `Cc1noc(NC(=O)N2CCC3(CC2)CC(c2ccc(OCc4ccc(Cl)cc4)cc2)CO3)c1C` (racemic) [Example 23, (3RS)-3-{4-[(4-chlorobenzyl)oxy]phenyl}-N-(3,4-dimethylisoxazol-5-yl)-1-oxa-8-azaspiro[4.5]decane-8-carboxamide]: 10900 M⁻¹ s⁻¹ and 6950 M⁻¹ s⁻¹.
Regarding `Cc1noc(NC(=O)N2CCC3(CC2)CC(c2ccc4ccccc4c2)CO3)c1C` (racemic) [Example 25, (3RS)-N-(3,4-dimethylisoxazol-5-yl)-3-(2-naphthyl)-1-oxa-8-azaspiro[4.5]decane-8-carboxamide], the kinact/KI on rat FAAH is 2240 M⁻¹ s⁻¹; on human FAAH, 2090 M⁻¹ s⁻¹.
The matching figures for `O=C(Nc1cccnc1)N1CCC2(CC1)CC(c1cccc(Oc3ccc(Br)cn3)c1)CO2` (racemic) [Example 6, (3RS)-3-{3-[(5-bromopyridin-2-yl)oxy]phenyl}-N-pyridin-3-yl-1-oxa-8-azaspiro[4.5]decane-8-carboxamide]: 1750 M⁻¹ s⁻¹ and 2320 M⁻¹ s⁻¹.
Regarding `Cc1noc(NC(=O)N2CCC3(CC2)CC(c2cccc(C(F)(F)F)c2)CO3)c1C` (single isomer, unassigned) [Example 67, N-(3,4-dimethylisoxazol-5-yl)-3-[3-(trifluoromethyl)phenyl]-1-oxa-8-azaspiro[4.5]decane-8-carboxamide], the “rFAAH kinact/Ki” value at rat FAAH amounted to 2680 M⁻¹ s⁻¹. The “hFAAH kinact/Ki” value at human FAAH stood at 1330 M⁻¹ s⁻¹.
For the molecule `Cc1noc(NC(=O)N2CCC3(CC2)CC(c2ccc(Cl)cc2F)CO3)c1C` (racemic) [Example 27, (3RS)-3-(4-chloro-2-fluorophenyl)-N-(3,4-dimethylisoxazol-5-yl)-1-oxa-8-azaspiro[4.5]decane-8-carboxamide], the kinact/KI on rat FAAH came out at 1140 M⁻¹ s⁻¹; at human FAAH, 2090 M⁻¹ s⁻¹.
The matching figures for `Cc1noc(NC(=O)N2CCC3(CC2)CC(c2ccc4c(c2)OCO4)CO3)c1C` (racemic) [Example 24, (3RS)-3-(1,3-benzodioxol-5-yl)-N-(3,4-dimethylisoxazol-5-yl)-1-oxa-8-azaspiro[4.5]decane-8-carboxamide]: 431 M⁻¹ s⁻¹ and 788 M⁻¹ s⁻¹.
The matching figures for `CCCc1noc(NC(=O)N2CCC3(CC2)CC(c2ccc(Cl)c(Cl)c2)CO3)c1C` (single isomer, unassigned) [Example 69, 3-(3,4-dichlorophenyl)-N-(3-n-propyl-4-methylisoxazol-5-yl)-1-oxa-8-azaspiro[4.5]decane-8-carboxamide]: 4880 M⁻¹ s⁻¹ and 960 M⁻¹ s⁻¹.
The matching figures for `O=C(Nc1cccnn1)N1CCC2(CC1)CC(c1cccc(Oc3ccc(Cl)cn3)c1)CO2` (racemic) [Example 4, (3RS)-3-{3-[(5-chloropyridin-2-yl)oxy]phenyl}-N-pyridazin-3-yl-1-oxa-8-azaspiro[4.5]decane-8-carboxamide]: 3380 M⁻¹ s⁻¹ and 2910 M⁻¹ s⁻¹.
